Patent publication US8486434B2, “Medical implant containing an antioxidative substance” (Biotronik VI Patent AG, priority 2009, dated 2013)

Test: toxicity of isoprenoids (compatibility with the body)
Conditions: in concentrations of 10 μmol/l
Excerpt: Thus, for example, lycopene and ubichinon are already toxic in concentrations of 10 μmol/l. Squalene, on the other hand, is not toxic, even in concentrations of 100 μmol/l.

Substance: ubichinon
- toxicity: toxic
